Measurements as given in ChEMBL document CHEMBL4190235, “Polysubstituted 2-aminoimidazoles as anti-biofilm and antiproliferative agents: Discovery of potent lead” (Eur J Med Chem, 2017).
Activity calls are given as the source filed them. The rule behind the calls is not given here.

Assays:
[1] = system: Pseudomonas aeruginosa; test: Antibiofilm activity against Pseudomonas aeruginosa PA14 after 24 hrs by crystal violet staining based method; type: functional
[2] = system: Pseudomonas aeruginosa; test: Inhibition of planktonic growth of Pseudomonas aeruginosa PA14 cells; type: organism-based
[3] = system: Salmonella typhimurium; test: Antibiofilm activity against Salmonella typhimurium ATCC 14028 after 24 hrs by crystal violet staining based method; type: functional, Salmonella enterica subsp. enterica serovar Typhimurium
[4] = system: Salmonella typhimurium; test: Inhibition of planktonic growth of Salmonella typhimurium ATCC 14028; type: organism-based, Salmonella enterica subsp. enterica serovar Typhimurium; conditions: Salmonella enterica
[5] = system: Staphylococcus aureus; test: Antibiofilm activity against Staphylococcus aureus SH1000 after 48 hrs by crystal violet staining based method; type: functional
[6] = system: Staphylococcus aureus; test: Inhibition of planktonic growth of Staphylococcus aureus SH1000; type: organism-based
[7] = system: A-375; test: Antiproliferative activity against human A375 cells after 48 hrs by MTT assay; type: functional, cell-based; conditions: A-375, 48 h
[8] = system: MIA PaCa-2; test: Antiproliferative activity against human MIAPaCa2 cells after 48 hrs by MTT assay; type: functional, cell-based; conditions: MIA PaCa-2, 48 h
[9] = system: A-375; test: Cytotoxicity against human A375 cells assessed as reduction in cell viability at IC50 concentration after 24 hrs by calcein AM-dye based assay; type: functional
[10] = system: MIA PaCa-2; test: Cytotoxicity against human MIAPaCa2 cells assessed as reduction in cell viability at IC50 concentration after 24 hrs by calcein AM-dye based assay; type: functional
[11] = system: A-375; test: Antiproliferative activity against human A375 cells assessed as reduction in colony forming ability at IC50 concentration after 10 to 14 days by crystal violet-staining based assay; type: functional, cell-based
[12] = system: MIA PaCa-2; test: Antiproliferative activity against human MIAPaCa2 cells assessed as reduction in colony forming ability at IC50 concentration after 10 to 14 days by crystal violet-staining based assay; type: functional, cell-based
[13] = system: A-375; test: Cell cycle arrest in human A375 cells assessed as accumulation at subG1 phase at IC50 concentration after 48 hrs by propidium iodide staining based flow cytometry (reference value: 1.1 +/- 0.4%); type: functional
[14] = system: A-375; test: Cell cycle arrest in human A375 cells assessed as accumulation at G0/G1 phase at IC50 concentration after 48 hrs by propidium iodide staining based flow cytometry (reference value: 64.18 +/- 2.6%); type: functional
[15] = system: A-375; test: Cell cycle arrest in human A375 cells assessed as accumulation at S phase at IC50 concentration after 48 hrs by propidium iodide staining based flow cytometry (reference value: 30.48 +/- 1.4%); type: functional
[16] = system: A-375; test: Cell cycle arrest in human A375 cells assessed as accumulation at G2/M phase at IC50 concentration after 48 hrs by propidium iodide staining based flow cytometry (reference value: 8.18 +/- 2.2%); type: functional
[17] = system: MIA PaCa-2; test: Cell cycle arrest in human MIAPaCa2 cells assessed as accumulation at subG1 phase at IC50 concentration after 48 hrs by propidium iodide staining based flow cytometry (reference value: 1.53 +/- 0.4%); type: functional
[18] = system: MIA PaCa-2; test: Cell cycle arrest in human MIAPaCa2 cells assessed as accumulation at G0/G1 phase at IC50 concentration after 48 hrs by propidium iodide staining based flow cytometry (reference value: 66.05 +/- 2.2%); type: functional
[19] = system: MIA PaCa-2; test: Cell cycle arrest in human MIAPaCa2 cells assessed as accumulation at S phase at IC50 concentration after 48 hrs by propidium iodide staining based flow cytometry (reference value: 17.29 +/- 1.8%); type: functional
[20] = system: MIA PaCa-2; test: Cell cycle arrest in human MIAPaCa2 cells assessed as accumulation at G2/M phase at IC50 concentration after 48 hrs by propidium iodide staining based flow cytometry (reference value: 16.66 +/- 0.8%); type: functional

Row | SMILES | MBIC50 [1] [µM] | IC50 [2] [µM] | MBIC50 [3] [µM] | IC50 [4] [µM] | MBIC50 [5] [µM] | IC50 [6] [µM] | IC50 [7] [µM] | IC50 [8] [µM] | Activity [9] | Activity [10] | Activity [11] | Activity [12] | Activity [13] [%] | Activity [14] [%] | Activity [15] [%] | Activity [16] [%] | Activity [17] [%] | Activity [18] [%] | Activity [19] [%] | Activity [20] [%]
1 | CCCCCc1nc(N)n(CC(=O)Nc2ccccc2)c1-c1ccccc1Br | >400 | > 400 | >400 | > 400 | 21.3 | > 400 | 26.4 | 40.6 |  |  |  |  |  |  |  |  |  |  |  | 
2 | CC(C)(C)c1ccc(Cc2nc(N)n(CC(=O)Nc3ccc([N+](=O)[O-])cc3)c2-c2ccccc2Br)cc1 | >400 | > 400 | >400 | > 400 | >400 | > 400 |  |  |  |  |  |  |  |  |  |  |  |  |  | 
3 | CCCCCCCc1nc(N)n(CC(=O)Nc2ccc(C)cc2)c1-c1ccccc1Br | 291.1 | 190 | 37.7 | > 400 | 14.4 | 22.8 | 5.2 | 7 |  |  |  |  |  |  |  |  |  |  |  | 
4 | COc1ccc(Cc2nc(N)n(CC(=O)Nc3ccc(C)cc3)c2-c2ccccc2Br)cc1 | 8.9 | 24.6 | 6.3 | 50.5 | 8.2 | 16.1 | 2.4 | 5.2 |  |  |  |  |  |  |  |  |  |  |  | 
5 | Cc1ccc(NC(=O)Cn2c(N)nc(Cc3ccccc3)c2-c2ccccc2Br)cc1 | 16.8 | 13.8 | 6 | 29.8 | 7.6 | 12.3 | 2 | 3.8 |  |  |  |  |  |  |  |  |  |  |  | 
6 | COc1ccc(NC(=O)Cn2c(N)nc(Cc3ccc(C(C)(C)C)cc3)c2-c2ccccc2Br)cc1 | >400 | > 400 | 231.2 | > 400 | 11.5 | 37.2 |  |  |  |  |  |  |  |  |  |  |  |  |  | 
7 | COc1ccc(Cc2nc(N)n(CC(=O)Nc3ccccc3)c2-c2ccccc2Br)cc1 | 12.6 | 13.1 | 17 | 46.4 | 4.3 | 23.3 | 1.4 | 3.2 | Active | Active | Active | Active | 19.88 | 43.56 | 32.1 | 55.33 | 11.21 | 50.41 | 24.5 | 40.45
8 | CCCCCCCc1nc(N)n(CC(=O)Nc2ccccc2)c1-c1ccccc1Br | 221.9 | > 400 | 114.8 | > 400 | 18.1 | 70.8 | 9.2 | 7.9 |  |  |  |  |  |  |  |  |  |  |  | 
9 | CC(C)(C)c1ccc(Cc2nc(N)n(CC(=O)Nc3ccccc3)c2-c2ccccc2Br)cc1 | 124.3 | > 400 | 12.5 | > 400 | 6.5 | 7.8 | 2.8 | 4.9 |  |  |  |  |  |  |  |  |  |  |  | 
10 | Cc1ccc(NC(=O)Cn2c(N)nc(Cc3ccc(C(C)(C)C)cc3)c2-c2ccccc2Br)cc1 | >400 | > 400 | 17.6 | > 400 | 3.9 | 7.9 | 1.4 | 3.4 |  |  |  |  |  |  |  |  |  |  |  | 
11 | Nc1nc(CC2CCCC2)c(-c2ccccc2Br)n1CC(=O)Nc1ccccc1 | >400 | > 400 | >400 | > 400 | >400 | > 400 | 24.3 | 61.4 |  |  |  |  |  |  |  |  |  |  |  | 
12 | CC(=O)O[C@H]1C(=O)[C@@]2(C)[C@H]([C@H](OC(=O)c3ccccc3)[C@]3(O)C[C@H](OC(=O)[C@H](O)[C@@H](NC(=O)c4ccccc4)c4ccccc4)C(C)=C1C3(C)C)[C@]1(OC(C)=O)CO[C@@H]1C[C@@H]2O [PACLITAXEL] |  |  |  |  |  |  | 0.7 | 2.5 |  |  |  |  |  |  |  |  |  |  |  | 
13 | Cc1ccc(NC(=O)Cn2c(N)nc(CC3CC3)c2-c2ccccc2Br)cc1 | 16 | 23.6 | 21.3 | 24.5 | 21.9 | 30.6 | 2.6 | 3.5 |  |  |  |  |  |  |  |  |  |  |  | 
14 | Cc1ccc(NC(=O)Cn2c(N)nc(CC3CCCCC3)c2-c2ccccc2Br)cc1 | >400 | > 400 | >400 | > 400 | >400 | > 400 | 17.5 | 48.8 |  |  |  |  |  |  |  |  |  |  |  | 
15 | CC(C)(C)c1ccc(Cc2nc(N)n(CC(=O)NCc3ccccc3)c2-c2ccccc2Br)cc1 | >400 | > 400 | >400 | > 400 | >400 | > 400 |  |  |  |  |  |  |  |  |  |  |  |  |  | 
16 | Nc1nc(Cc2ccccc2)c(-c2ccccc2Br)n1CC(=O)NCc1ccccc1 | 382.1 | 55.7 | 38.8 | > 400 | 41.5 | 55.7 |  |  |  |  |  |  |  |  |  |  |  |  |  | 
17 | Nc1nc(CC2CC2)c(-c2ccccc2Br)n1CC(=O)Nc1ccccc1 | 86.3 | 155 | 107.6 | > 400 | 29.2 | 130 | 5.8 | 6.9 |  |  |  |  |  |  |  |  |  |  |  | 
18 | Cc1ccc(NC(=O)Cn2c(N)nc(CC3CCCC3)c2-c2ccccc2Br)cc1 | >400 | > 400 | >400 | > 400 | 289.6 | > 400 | 47.8 | 80.5 |  |  |  |  |  |  |  |  |  |  |  | 
19 | O=C(OC[C@H]1O[C@@H](OC(=O)c2cc(O)c(O)c(OC(=O)c3cc(O)c(O)c(O)c3)c2)[C@H](OC(=O)c2cc(O)c(O)c(OC(=O)c3cc(O)c(O)c(O)c3)c2)[C@@H](OC(=O)c2cc(O)c(O)c(OC(=O)c3cc(O)c(O)c(O)c3)c2)[C@@H]1OC(=O)c1cc(O)c(O)c(OC(=O)c2cc(O)c(O)c(O)c2)c1)c1cc(O)c(O)c(OC(=O)c2cc(O)c(O)c(O)c2)c1 [TANNIC ACID] | 27.7 | > 400 | 18.8 | > 400 | 115.3 | > 400 |  |  |  |  |  |  |  |  |  |  |  |  |  | 
20 | Nc1nc(CC2CCCCC2)c(-c2ccccc2Br)n1CC(=O)Nc1ccccc1 | >400 | > 400 | >400 | > 400 | >400 | > 400 | 40.6 | 89 |  |  |  |  |  |  |  |  |  |  |  | 
21 | O=C(N/N=C/c1ccc([N+](=O)[O-])o1)c1ccc(O)cc1 [NIFUROXAZIDE] | >400 | > 400 | >400 | > 400 | >400 | > 400 |  |  |  |  |  |  |  |  |  |  |  |  |  | 
22 | CCCCCc1nc(N)n(CC(=O)Nc2ccc(C)cc2)c1-c1ccccc1Br | 42.4 | 76 | 31.5 | 200 | 29.8 | 33.2 | 4.3 | 5.6 |  |  |  |  |  |  |  |  |  |  |  | 
23 | CCCCCCc1nc(N)n(CC(=O)Nc2ccc(C)cc2)c1-c1ccccc1Br | 29.5 | 49.6 | 21.8 | > 400 | 12.6 | 23.1 | 5.1 | 6.5 |  |  |  |  |  |  |  |  |  |  |  | 
24 | Nc1nc(Cc2ccccc2)c(-c2ccccc2Br)n1CC(=O)Nc1ccccc1 | >400 | > 400 | >400 | > 400 | >400 | > 400 | 5.2 | 5.7 |  |  |  |  |  |  |  |  |  |  |  | 
25 | CCCCCCc1nc(N)n(CC(=O)Nc2ccccc2)c1-c1ccccc1Br | 50.7 | 119 | 35.7 | > 400 | 6.6 | 16.3 | 5.7 | 8.6 |  |  |  |  |  |  |  |  |  |  |  | 
26 | Cc1ccc(Cc2nc(N)n(CC(=O)Nc3ccccc3)c2-c2ccccc2Br)cc1 | >400 | > 400 | >400 | > 400 | >400 | > 400 | 2.5 | 9.2 |  |  |  |  |  |  |  |  |  |  |  | 
27 | O=c1cc(-c2ccccc2)oc2cc(O)c(O)c(O)c12 [BAICALEIN] | >400 | > 400 | >400 | > 400 | 77.5 | > 400 |  |  |  |  |  |  |  |  |  |  |  |  |  | 
